Test results: patent US9200001B2, “Triazolyl PDE10 inhibitors” (Merck Sharp & Dohme Corp., priority 2011, dated 2015)
pKi: −log10 of the molar value.

Biological target: human PDE10A2 (Homo sapiens (Human), UniProt Q9Y233)
Test: PDE10 fluorescence polarization (IMAP FP) inhibition assay
Type: biochemical
Conditions: FAM-labeled cAMP 50 nM, room temperature, read-out: PDE10a Ki
Procedure: The activity of the compounds in accordance with the present invention as PDE10 inhibitors may be readily determined without undue experimentation using a fluorescence polarization (FP) methodology that is well known in the art (Huang, W., et al., J. Biomol Screen, 2002, 7: 215).
In a typical experiment the PDE10 inhibitory activity of the compounds of the present invention was determined in accordance with the following experimental method. PDE10A2 was amplified from human fetal brain cDNA (Clontech, Mountain View, Calif.) using a forward primer corresponding to nucleotides 56-77 of human PDE10A2 (Accession No. AF127480, Genbank Identifier 4894716), containing a Kozak consensus sequence, and a reverse primer corresponding to nucleotides 2406-2413 of human PDE10A2 (Accession No. AF127480, Genbank Identifier 4894716). Amplification with Easy-A polymerase (Stratagene, La Jolla, Calif.) was 95° C. for 2 minutes followed by thirty three cycles of 95° C. for 40 seconds, 55° C. for 30 seconds, and 72° C. for 2 minutes 48 seconds. Final extension was 72° C. for 7 minutes. The PCR product was TA cloned into pcDNA3.2-TOPO (Invitrogen, Carlsbad, Calif.) according to standard protocol. AD293 cells with 70-80% confluency were transiently transfected with human PDE10A2/pcDNA3.2-TOPO using Lipofectamine 2000 according to manufacturer specifications (Invitrogen, Carlsbad, Calif.). Cells were harvested 48 hours post-transfection and lysed by sonication (setting 3, 10×5 sec pulses) in a buffer containing 20 mM HEPES, 1 mM EDTA and protease inhibitor cocktail (Roche). Lysate was collected by centrifugation at 75,000×g for 20 minutes. Supernatant containing the cytoplasmic fraction was used for evaluation of PDE10A2 activity. The fluorescence polarization assay for cyclic nucleotide phosphodiesterases was performed using an IMAP® FP kit supplied by Molecular Devices, Sunnyvale, Calif. (product # R8139). IMAP® technology has been applied previously to phosphodiesterase assays (Huang, W., et al., J. Biomol Screen, 2002, 7: 215). Assays were performed at room temperature in 384-well microtiter plates with an incubation volume of 20.2 μL. Solutions of test compounds were prepared in DMSO and serially diluted with DMSO to yield 8 μL of each of 10 solutions differing by 3-fold in concentration, at 32 serial dilutions per plate. 100% inhibition is determined using a known PDE10 inhibitor, which can be any compound that is present at 5,000 times its Ki value in the assay described as follows, such as papaverine (see Siuciak, et al. Neuropharmacology (2006) 51:386-396; Becker, et al. Behav Brain Res (2008) 186(2):155-60; Threlfell, et al., J Pharmacol Exp Ther (2009) 328(3):785-795), 2-{4-[pyridin-4-yl-1-(2,2,2-trifluoroethyl)-1H-pyrazol-3-yl]phenoxymethyl}quinoline succinic acid or 2-[4-(1-methyl-4-pyridin-4-yl-1H-pyrazol-3-yl)-phenoxymethyl]quinoline succinic acid (see Schmidt, et al. J Pharmacol Exp Ther (2008) 325:681-690; Threlfall, et al., J Pharmacol Exp Ther (2009) 328(3): 785-795). 0% of inhibition is determined by using DMSO (1% final concentrations).
A Labcyte Echo 555 (Labcyte, Sunnyvale, Calif.) is used to dispense 200 nL from each well of the titration plate to the 384 well assay plate. A solution of enzyme (1/1600 dilution from aliquots; sufficient to produce 20% substrate conversion) and a separate solution of FAM-labeled cAMP PDE from Molecular Devices (product # R7506), at a final concentration of 50 nM are made in the assay buffer (10 mM Tris HCl, pH 7.2, 10 mM MgCl2, 0.05% NaN3 0.01% Tween-20, and 1 mM DTT). The enzyme and the substrate are then added to the assay plates in two consecutive additions of 10 μL, and then shaken to mix. The reaction is allowed to proceed at room temperature for 30 minutes. A binding solution is then made from the kit components, comprised of 80% Solution A, 20% Solution B and binding reagent at a volume of 1600 the total binding solution. […]

human PDE10A2, sequence (Q9Y233 267-1055): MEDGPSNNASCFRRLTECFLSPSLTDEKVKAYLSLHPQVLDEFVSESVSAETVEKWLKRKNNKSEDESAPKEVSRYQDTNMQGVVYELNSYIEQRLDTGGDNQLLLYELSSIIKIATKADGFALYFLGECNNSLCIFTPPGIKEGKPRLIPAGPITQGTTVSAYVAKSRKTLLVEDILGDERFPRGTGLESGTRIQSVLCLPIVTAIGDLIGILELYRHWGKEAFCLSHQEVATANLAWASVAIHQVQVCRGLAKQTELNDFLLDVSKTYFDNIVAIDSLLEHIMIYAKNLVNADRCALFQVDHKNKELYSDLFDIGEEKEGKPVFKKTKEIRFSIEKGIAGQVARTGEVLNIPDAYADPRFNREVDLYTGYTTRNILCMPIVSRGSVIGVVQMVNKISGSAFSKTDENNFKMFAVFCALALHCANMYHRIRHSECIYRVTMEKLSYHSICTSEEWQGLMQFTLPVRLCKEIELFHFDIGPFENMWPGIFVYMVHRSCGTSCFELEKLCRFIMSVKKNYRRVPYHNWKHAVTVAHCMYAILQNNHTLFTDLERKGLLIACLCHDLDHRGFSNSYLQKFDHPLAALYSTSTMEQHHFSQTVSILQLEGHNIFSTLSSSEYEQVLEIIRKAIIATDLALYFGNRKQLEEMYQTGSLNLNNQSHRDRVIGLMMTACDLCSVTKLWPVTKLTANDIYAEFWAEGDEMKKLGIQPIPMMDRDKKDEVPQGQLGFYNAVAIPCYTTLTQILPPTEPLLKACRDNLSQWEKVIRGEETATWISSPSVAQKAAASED

A pKi of 8.54 was found for `Cc1nc([C@H]2C[C@@H]2c2nc3ccccc3n2CCF)cc(-n2nc(C)nc2C)n1` [Cpd 103, 2-{(1S,2S)-2-[6-(3,5-dimethyl-1H-1,2,4-triazol-1-yl)-2-methylpyrimidin-4-yl]cyclopropyl}-1-(2-fluoroethyl)-1H-benzimidazole] in this work.

A pKi of 10.57 was found for `COc1ccc(Cc2nc(C)nn2-c2cc(CCc3ccc4ncccc4n3)nc(C)n2)cc1OC` [Cpd 16, 2-(2-(6-(5-(3,4-dimethoxybenzyl)-3-methyl-1H-1,2,4-triazol-1-yl)-2-methylpyrimidin-4-yl)ethyl)-1,5-naphthyridine] in this work.

A pKi of 11.40 was found for `COc1ccc(Cc2nc(C)nn2-c2cc(CCc3ccc4ccccc4n3)nc(C)n2)cc1OC` [Cpd 3, 2-(2-(6-(5-(3,4-dimethoxybenzyl)-3-methyl-1H-1,2,4-triazol-1-yl)-2-methylpyrimidin-4-yl)ethyl)quinoline] in this work.

A pKi of 7.87 was found for `Cc1nc(C2CC2c2nc3ccccc3n2Cc2ccccc2)cc(-n2nc(C)nc2C)n1` (stereo not drawn) [Cpd 52, 1-benzyl-2-(2-(6-(3,5-dimethyl-1H-1,2,4-triazol-1-yl)-2-methylpyrimidin-4-yl)cyclopropyl)-1H-benzo[d]imidazole] in this work.

A pKi of 10.64 was found for `COc1ccc(Cc2nc(C)nn2-c2cc(C#Cc3ccc4ccccc4n3)nc(C)n2)cc1OC` [Cpd 2, 2-((6-(5-(3,4-dimethoxybenzyl)-3-methyl-1H-1,2,4-triazol-1-yl)-2-methylpyrimidin-4-yl)ethynyl)quinoline] in this work.

A pKi of 8.77 was found for `Cc1nc(C2CC2c2nc3ccccc3n2C)cc(-n2nc(C)nc2C(C)C)n1` (stereo not drawn) [Cpd 56, 2-(2-(6-(5-isopropyl-3-methyl-1H-1,2,4-triazol-1-yl)-2-methylpyrimidin-4-yl)cyclopropyl)-1-methyl-1H-benzo[d]imidazole] in this work.

A pKi of 8.01 was found for `COc1ccc(Cc2nc(C)nn2-c2cc(C3CC3c3nnc(C)s3)nc(C)n2)cc1OC` (stereo not drawn) [Cpd 29, 2-(2-(6-(5-(3,4-dimethoxybenzyl)-3-methyl-1H-1,2,4-triazol-1-yl)-2-methylpyrimidin-4-yl)cyclopropyl)-5-methyl-1,3,4-thiadiazole] in this work.

A pKi of 11.70 was found for `COc1ccc(Cc2nc(C)nn2-c2cc(/C=C/c3ccc4ccccc4n3)nc(C)n2)cc1OC` [Cpd 18, (E)-2-(2-(6-(5-(3,4-dimethoxybenzyl)-3-methyl-1H-1,2,4-triazol-1-yl)-2-methylpyrimidin-4-yl)vinyl)quinoline] in this work.

A pKi of 7.89 was found for `Cc1nc([C@@H]2C[C@H]2c2nc3ccccc3n2CC2CCCO2)cc(-n2nc(C)nc2C)n1` (stereo in doubt) [Cpd 75, 2-{2-[6-(3,5-dimethyl-1H-1,2,4-triazol-1-yl)-2-methylpyrimidin-4-yl]cyclopropyl}-1-(tetrahydrofuran-2-ylmethyl)-1H-benzimidazole] in this work.

A pKi of 7.41 was found for `Cc1nc(C2CC2c2nc3ccccc3n2-c2ccccc2)cc(-n2nc(C)nc2C)n1` (stereo not drawn) [Cpd 51, 2-(2-(6-(3,5-dimethyl-1H-1,2,4-triazol-1-yl)-2-methylpyrimidin-4-yl)cyclopropyl)-1-phenyl-1H-benzo[d]imidazole] in this work.

A pKi of 7.87 was found for `Cc1nc([C@@H]2C[C@H]2c2nc3ccccc3n2C(C)C)cc(-n2nc(C)nc2C)n1` (stereo in doubt) [Cpd 71, 2-{2-[6-(3,5-dimethyl-1H-1,2,4-triazol-1-yl)-2-methylpyrimidin-4-yl]cyclopropyl}-1-(1-methylethyl)-1H-benzimidazole] in this work.

A pKi of under 7.12 was found for `Cc1nc([C@H]2C[C@@H]2c2nc3ccccc3n2CCF)cc(-n2nc(C)nc2C)n1` [Cpd 102, 2-{(1S,2S)-2-[6-(3,5-dimethyl-1H-1,2,4-triazol-1-yl)-2-methylpyrimidin-4-yl]cyclopropyl}-1-(2-fluoroethyl)-1H-benzimidazole] in this work.

A pKi of 9.27 was found for `CCOc1nc([C@@H]2C[C@H]2c2nc3ccccc3n2C)cc(-n2nc(C)nc2C)n1` [Cpd 63, 2-{(1R,2R)-2-[6-(3,5-dimethyl-1H-1,2,4-triazol-1-yl)-2-ethoxypyrimidin-4-yl]cyclopropyl}-1-methyl-1H-benzimidazole] in this work.

A pKi of 8.38 was found for `Cc1nc([C@@H]2C[C@H]2c2nc3ccccc3n2C)cc(-n2nc(C)nc2C(C)(C)O)n1` [Cpd 98, 2-(3-methyl-1-{2-methyl-6-[(1R,2R)-2-(1-methyl-1H-benzimidazol-2-yl)cyclopropyl]pyrimidin-4-yl}-1H-1,2,4-triazol-5-yl)propan-2-ol] in this work.

A pKi of 10.55 was found for `COc1ccc(Cc2nc(C)nn2-c2cc(CCc3ccc4ccccc4n3)nc(C)n2)nc1OC` [Cpd 8, 2-(2-(6-(5-((5,6-dimethoxypyridin-2-yl)methyl)-3-methyl-1H-1,2,4-triazol-1-yl)-2-methylpyrimidin-4-yl)ethyl)quinoline] in this work.

A pKi of 8.05 was found for `Cc1nc([C@@H]2C[C@H]2c2nc3ccccc3n2C)cc(-n2cnc(C)n2)n1` [Cpd 77, 1-methyl-2-{(1R,2R)-2-[2-methyl-6-(3-methyl-1H-1,2,4-triazol-1-yl)pyrimidin-4-yl]cyclopropyl}-1H-benzimidazole] in this work.

A pKi of 7.74 was found for `Cc1cc([C@H]2C[C@@H]2c2nc3ccccc3n2C)cc(-n2nc(C)nc2C)n1` (relative stereo) [Cpd 110, trans-2-{2-[2-(3,5-dimethyl-1H-1,2,4-triazol-1-yl)-6-methylpyridin-4-yl]cyclopropyl}-1-methyl-1H-benzimidazole] in this work.

A pKi of 11.30 was found for `COc1ccc(Cc2nc(C)nn2-c2cc([C@@H]3C[C@H]3c3nc4ccccc4[nH]3)nc(C)n2)cc1OC` [Cpd 26, 2-((1R,2R)-2-(6-(5-(3,4-dimethoxybenzyl)-3-methyl-1H-1,2,4-triazol-1-yl)-2-methylpyrimidin-4-yl)cyclopropyl)-1H-benzo[d]imidazole] in this work.

A pKi of 9.68 was found for `Cc1ccc(C2CC2c2cc(-n3nc(C)nc3Cc3ccccc3)nc(C)n2)nc1` (stereo not drawn) [Cpd 49, 4-(5-benzyl-3-methyl-1H-1,2,4-tiazol-1-yl)-2-methyl-6-(2-(5-methylpyridin-2-yl)cyclopropyl)pyrimidine] in this work.

A pKi of 9.02 was found for `CCc1nc(C)nn1-c1cc([C@H]2C[C@@H]2c2nc3ccccc3n2C)nc(C)n1` (stereo in doubt) [Cpd 83, 2-{2-[6-(5-ethyl-3-methyl-1H-1,2,4-triazol-1-yl)-2-methylpyrimidin-4-yl]cyclopropyl}-1-methyl-1H-benzimidazole] in this work.

A pKi of 8.41 was found for `Cc1nc([C@@H]2C[C@H]2c2nc3ccccc3n2C)cc(-n2nc(C)nc2C2CCN(C)CC2)n1` [Cpd 96, 1-methyl-2-[(1R,2R)-2-{2-methyl-6-[3-methyl-5-(1-methylpiperidin-4-yl)-1H-1,2,4-triazol-1-yl]pyrimidin-4-yl}cyclopropyl]-1H-benzimidazole] in this work.

A pKi of under 7.12 was found for `Cc1nc([C@H]2C[C@@H]2c2nc3ccccc3n2C)cc(-n2nc(C)nc2C2CCN(C(=O)OC(C)(C)C)CC2)n1` (stereo in doubt) [Cpd 84, tert-butyl 4-(3-methyl-1-{2-methyl-6-[2-(1-methyl-1H-benzimidazol-2-yl)cyclopropyl]pyrimidin-4-yl}-1H-1,2,4-triazol-5-yl)piperidine-1-carboxylate] in this work.

A pKi of 8.28 was found for `COCc1ncnn1-c1cc([C@@H]2C[C@H]2c2nc3ccccc3n2C)nc(C)n1` [Cpd 94, 2-[(1R,2R)-2-{6-[5-(methoxymethyl)-1H-1,2,4-triazol-1-yl]-2-methylpyrimidin-4-yl}cyclopropyl]-1-methyl-1H-benzimidazole] in this work.

A pKi of 9.40 was found for `CCc1nc(C)nn1-c1cc([C@@H]2C[C@H]2c2nc3ccccc3n2C)nc(C)n1` [Cpd 92, 2-{(1R,2R)-2-[6-(5-ethyl-3-methyl-1H-1,2,4-triazol-1-yl)-2-methylpyrimidin-4-yl]cyclopropyl}-1-methyl-1H-benzimidazole] in this work.
